Test results reported in patent US20210402211A1, “LIGHT-HYDROGEN THERAPY INCLUDING LIGHTING MODULE, LIGHTING APPARATUS, AND LIGHTING METHOD FOR PARKINSON'S DISEASE PATIENTS” (priority 2020, published 2021).

Tested on: PD patients
Conditions: without light therapy, in a short time

SMILES: [HH] [hydrogen, Molecular hydrogen]
- effectiveness of hydrogen therapy alone: not that effective
